The values that follow are results of earlier work, collected in US20010006686A1, “INFLAMMATORY MEDIATION OBTAINED FROM ATRACTYLODES LANCEA” (priority 1999, published 2001).

The target in this data set is T1, cyclooxygenase-1 (Ovis aries, UniProt P05979).
T1 sequence (P05979 25-600): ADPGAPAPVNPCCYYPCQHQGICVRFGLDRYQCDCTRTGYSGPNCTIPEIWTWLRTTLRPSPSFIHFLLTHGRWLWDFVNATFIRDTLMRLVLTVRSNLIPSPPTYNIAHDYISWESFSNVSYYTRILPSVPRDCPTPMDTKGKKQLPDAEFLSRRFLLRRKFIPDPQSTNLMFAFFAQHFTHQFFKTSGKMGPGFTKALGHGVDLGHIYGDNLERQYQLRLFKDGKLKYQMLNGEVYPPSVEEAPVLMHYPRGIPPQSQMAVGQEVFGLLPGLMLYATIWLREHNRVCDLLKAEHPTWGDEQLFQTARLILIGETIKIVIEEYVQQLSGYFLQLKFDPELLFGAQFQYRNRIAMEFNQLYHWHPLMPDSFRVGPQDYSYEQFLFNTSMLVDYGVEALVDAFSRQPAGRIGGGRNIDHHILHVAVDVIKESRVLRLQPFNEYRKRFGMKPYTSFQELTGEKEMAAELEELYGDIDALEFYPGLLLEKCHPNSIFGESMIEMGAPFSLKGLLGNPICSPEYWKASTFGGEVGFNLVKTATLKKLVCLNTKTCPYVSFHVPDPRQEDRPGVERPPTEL
The following applies: Resch, et al., J. Nat. Prod., 61, 347-350 (1998).

As for `CC(C)=CCCC1(C)C=Cc2cc(O)cc(C)c2O1` (stereo not shown) [atractylochromene], the “inhibitory effects on COX-1 activity (in words)” value is “significant COX-1 inhibitory effects”.
